1 molecule from patent US6391921B1 (priority 2000, dated 2002) can be followed below.

Each structure is given as a SMILES string.

In experiment [1] the test system is Balb/c mice. Nature of the experiment: Carrageenan air pouch model of acute inflammation, PGE2 release in vivo. Conditions: 50 mg/kg i.p. twice before carrageenan challenge; 4 hours after challenge; FIG. 6. Here is the method:
The effects of compound D-58 on PGE2 release in vivo were examined using a well characterized air pouch mouse model of acute inflammation (ref 36). An acute inflammatory response was induced in the air pouches of mice by the injection of carrageenan, a sulfated polysaccharide obtained from the alga Chondrus crispus (ref 36).
Balb/c (6-8 weeks old male) mice were utilized for these experiments. To create an air pouch, mice were injected with 3 ml sterile air subcutaneously using a 30 gauge needle on days 0 and 3 as described previously (refs 30 and 31). Six days after the initial injection of air, mice were injected with 2 ml of 1% carrageenan into the subcutaneous air pouch.
In order to study the effect of compound D-58, a group of mice was injected with the drug i.p. 60 minutes and 30 minutes before the carrageenan challenge. Control mice were treated with vehicle alone. After 4 hours of challenge with carrageenan, mice were sacrificed and the contents of the air pouches were harvested by lavage with 2 ml cold saline. The recovered fluids were centrifuged at 250×g for 15 minutes at 4° C. Supernatants were saved at −80° C. for the estimation the of prostaglandin E2 contents. […]
The data points represent the mean±SEM values (n=4-5 mice). *p<0.05 compared to vehicle-treated controls was determined by Student's t test.

Experiment [2] relates to Balb/c mice. As to the kind of experiment: IgE-dependent passive cutaneous anaphylaxis (Evans blue dye extravasation). The class given is in vivo. Conditions: 25 mg/kg i.p. twice at 1 hour intervals prior to antigen challenge; 30 minutes after challenge; vehicle 0.64±0.08. The method, then: The in vivo biologic activity of compound D-58 was examined in a well characterized murine model of passive cutaneous anaphylaxis. In order to induce passive cutaneous anaphylaxis, left ears of Balb/c mice were sensitized with 50 μg DNP-IgE intradermally. Right ears were injected with equal volumes of saline. Dorsal sides of the ears of Balb/c mice were injected intradermally with 50 μg of DNP-IgE (left ears) or PBS (right ears) using a 30-gauge needle (ref 28). Twenty hours later, mice were challenged with 100 μg antigen (DNP-BSA) in 200 μl 2% Evans blue dye intravenously. Control mice were given PBS (but not antigen) intravenously with 2% Evans blue. For quantitation of Evans blue dye extravasation as a measure of anaphylaxis-associated vascular hyperpermeability, 8 mm^2 skin specimens were removed from the ears of mice, minced in 2 ml formamide and incubated in a 80° C. water bath for 2 hours to extract the dye. The absorbance was read at 570 nm using a spectrophotometer.
For assessment of the vascular leak, animals were sacrificed 30 minutes after the antigen challenge. The plasma exudation was assessed by quantitation of the amount of Evan's blue dye extravasated into the ear skin 30 minutes after the antigen challenge. […]

In another experiment the test system is skh-1 mice. Nature of the experiment: Histological studies of UVB-irradiated skin. The format is in vivo. An excerpt: After mice from Example 7 were sacrificed electively, a skin specimen was removed and spread on a sheet of dental wax. An 8 mm^2 biopsy punch was taken and fixed in buffered formalin. 4-5 μm thick sections were cut from paraffin blocks. In order to study the histopathological changes in skin following UVB exposure, the tissue sections were stained with hematoxylin and eosin and the stained slides were examined microscopically.
The effects of compound D-58 on UVB-induced histological changes in skin were examined and the results are illustrated in the 40× magnifications of FIGS. 8A-8C. The normal epidermis typically has a 2-3 cell layer and contains scattered inflammatory cells especially around hair follicles (FIG. 8A). […] Large numbers of neutrophils also were accumulated in the dermis (FIG. 8B). In contrast, the skin of mice treated with compound D-58 looked very much like the skin of unirradiated controls (FIG. 8C), with 1-2 cell layers of epidermis and normal dermis.

In a further experiment the test system is RBL-2H3 mast cells. As to the kind of experiment: IgE receptor/FcεRI-mediated mast cell degranulation (β-hexosaminidase release). The class given is cell-based, rat. The method, then:
Monolayers of RBL-2H3 rat mast cells were sensitized with monoclonal anti-DNP IgE antibody (0.24 mg/ml) for 1 hour at 37° C. in a 48-well tissue culture plate. Unbound IgE was removed by washing the cells with phosphate buffered saline. After washing, PIPES-buffered saline containing 1 mM calcium chloride was added to the monolayers of the RBL-2H3 cells. The cells were challenged with 20 ng/ml DNP-BSA for 30 minutes at 37° C. The plate was centrifuged at 200 g for 10 minutes at 4° C. and supernatants were saved. […]
To study the effects of compound D-58, RBL-2H3 cells were incubated with compound D-58 at the indicated concentrations or vehicle for 1 hour prior to antigen challenge. Mast cell degranulation (β-hexosaminidase release, % of total) was assessed by measuring the β-hexosaminidase levels in cell free supernatants and Triton X-100 solubilized pellets using the formula: β-hexosaminidase release, % of total=100×(β-hexosaminidase level in supernatant/β-hexosaminidase level in supernatant+solubilized pellet). […]
In order to examine the effects of compound D-58 on IgE receptor/FcεRI-mediated mast cell activation and mediator release, RBL-2H3 mast cells were exposed to increasing concentrations of this ethanone or vehicle prior to challenge with antigen (DNP-BSA). […] Mast cell β-hexosaminidase release (FIG. 3A) and LTC4 release (FIG. 3B) were measured. […]

In the case of `COc1ccc(CC(=O)c2c(O)cc(O)cc2O)cc1` [Compound D-58], the “decrease of PGE2 release into the air pouch” value in the experiment on Balb/c mice [1] is given as “approximately 50%”. Also, the “Evans blue dye extravasation in DNP-IgE injected ears, Absorbance at 570 nm” value in the experiment with Balb/c mice [2] is 0.26±0.02. In the experiment with skh-1 mice (UVB-irradiated skin of treated mice, FIG. 8C, UVB-irradiated untreated 3-5, normal 2-3), the “cell layers of epidermis” value is recorded as 1-2. In the experiment on skh-1 mice (histology, hematoxylin and eosin), the “edema and neutrophil influx in UVB irradiated skin” value is “prevented the development of edema and neutrophil influx”. In addition, in the experiment on RBL-2H3 mast cells (1 hour prior to DNP-BSA challenge, FIG. 3A), the “IgE/antigen induced mast cell degranulation (β-hexosaminidase)” value is recorded as “inhibited”. The “mediator release induced by compound alone” value with RBL-2H3 mast cells (incubation without antigen challenge (data not shown)) was “did not induce mediator release”.
